Assay results published in the NIST ThermoML archive (doi:10.1016/j.jct.2012.03.020).

Legend:
[1] = mn = molality of the nth substance listed, in mol/kg; conditions: 101 kPa, Liquid, Pycnometric method
[2] = refractive index (Na D-line) (dimensionless); mn = molality of the nth substance listed, in mol/kg; conditions: 101 kPa, Liquid, Standard Abbe refractometry

Cc1ccc(C(=O)N(O)c2ccccc2)cc1[N+](=O)[O-] [N-hydroxy-4-methyl-3-nitro-N-phenylbenzamide] + CN(C)C=O
Conditions | mass density, 298.15 K [kg/m3] | mass density, 303.15 K [kg/m3] | mass density, 308.15 K [kg/m3] | mass density, 313.15 K [kg/m3] | refractive index, 298.15 K | refractive index, 303.15 K | refractive index, 308.15 K | refractive index, 313.15 K
[1], m1 = 0.0184 | 947.8 | 942.4 | 938.4 | 933.1 | – | – | – | –
[1], m1 = 0.0368 | 950.2 | 944.9 | 941 | 935.8 | – | – | – | –
[1], m1 = 0.0551 | 952.6 | 947.4 | 943.5 | 938.4 | – | – | – | –
[1], m1 = 0.0735 | 954.8 | 949.7 | 945.9 | 940.9 | – | – | – | –
[1], m1 = 0.0919 | 957 | 952 | 948.2 | 943.3 | – | – | – | –
[1], m1 = 0.1103 | 959.1 | 954.2 | 950.4 | 945.7 | – | – | – | –
[1], m1 = 0.1286 | 961.1 | 956.3 | 952.6 | 947.9 | – | – | – | –
[1], m1 = 0.147 | 963.1 | 958.4 | 954.7 | 950.1 | – | – | – | –
[1], m1 = 0.1654 | 965 | 960.4 | 956.7 | 952.2 | – | – | – | –
[1], m1 = 0.1838 | 966.9 | 962.3 | 958.7 | 954.3 | – | – | – | –
[2], m1 = 0.0184 | – | – | – | – | 1.4391 | 1.435 | 1.432 | 1.4299
[2], m1 = 0.0368 | – | – | – | – | 1.4406 | 1.437 | 1.4343 | 1.432
[2], m1 = 0.0551 | – | – | – | – | 1.442 | 1.439 | 1.436 | 1.434
[2], m1 = 0.0735 | – | – | – | – | 1.444 | 1.441 | 1.438 | 1.4354
[2], m1 = 0.0919 | – | – | – | – | 1.447 | 1.4441 | 1.44 | 1.437
[2], m1 = 0.1103 | – | – | – | – | 1.4483 | 1.4455 | 1.442 | 1.439
[2], m1 = 0.1286 | – | – | – | – | 1.4496 | 1.4466 | 1.443 | 1.441
[2], m1 = 0.147 | – | – | – | – | 1.452 | 1.448 | 1.446 | 1.4429
[2], m1 = 0.1654 | – | – | – | – | 1.4535 | 1.45 | 1.448 | 1.444
[2], m1 = 0.1838 | – | – | – | – | 1.455 | 1.452 | 1.4494 | 1.445

O=C(c1ccc([N+](=O)[O-])cc1)N(O)c1ccccc1 [N-hydroxy-4-nitro-N-phenylbenzamide] + CN(C)C=O
Conditions | mass density, 298.15 K [kg/m3] | mass density, 303.15 K [kg/m3] | mass density, 308.15 K [kg/m3] | mass density, 313.15 K [kg/m3] | refractive index, 298.15 K | refractive index, 303.15 K | refractive index, 308.15 K | refractive index, 313.15 K
[1], m1 = 0.0234 | 947.5 | 942.1 | 938.1 | 932.8 | – | – | – | –
[1], m1 = 0.0469 | 949.7 | 944.4 | 940.5 | 935.3 | – | – | – | –
[1], m1 = 0.0703 | 951.9 | 946.7 | 942.8 | 937.7 | – | – | – | –
[1], m1 = 0.0938 | 954 | 948.9 | 945.1 | 940 | – | – | – | –
[1], m1 = 0.1172 | 956.1 | 951.1 | 947.3 | 942.3 | – | – | – | –
[1], m1 = 0.1407 | 958.2 | 953.2 | 949.5 | 944.5 | – | – | – | –
[1], m1 = 0.1641 | 960.2 | 955.3 | 951.6 | 946.7 | – | – | – | –
[1], m1 = 0.1876 | 962.2 | 957.4 | 953.7 | 948.8 | – | – | – | –
[1], m1 = 0.211 | 964.2 | 959.4 | 955.8 | 950.8 | – | – | – | –
[1], m1 = 0.2345 | 966.1 | 961.4 | 957.8 | 952.9 | – | – | – | –
[2], m1 = 0.0234 | – | – | – | – | 1.428 | 1.4264 | 1.4242 | 1.4223
[2], m1 = 0.0469 | – | – | – | – | 1.4289 | 1.4274 | 1.4254 | 1.4235
[2], m1 = 0.0703 | – | – | – | – | 1.4294 | 1.4279 | 1.4259 | 1.4244
[2], m1 = 0.0938 | – | – | – | – | 1.4299 | 1.4285 | 1.4266 | 1.4249
[2], m1 = 0.1172 | – | – | – | – | 1.43 | 1.429 | 1.4271 | 1.4258
[2], m1 = 0.1407 | – | – | – | – | 1.4305 | 1.4295 | 1.4276 | 1.4266
[2], m1 = 0.1641 | – | – | – | – | 1.4315 | 1.4302 | 1.4286 | 1.4271
[2], m1 = 0.1876 | – | – | – | – | 1.4325 | 1.4311 | 1.4292 | 1.4275
[2], m1 = 0.211 | – | – | – | – | 1.4329 | 1.4319 | 1.4301 | 1.4284
[2], m1 = 0.2345 | – | – | – | – | 1.433 | 1.4322 | 1.4304 | 1.4291

O=C(c1ccccc1)N(O)c1ccccc1 [N-phenylbenzohydroxamic acid] + CN(C)C=O
Conditions | mass density, 298.15 K [kg/m3] | mass density, 303.15 K [kg/m3] | mass density, 308.15 K [kg/m3] | mass density, 313.15 K [kg/m3] | refractive index, 298.15 K | refractive index, 303.15 K | refractive index, 308.15 K | refractive index, 313.15 K
[1], m1 = 0.0234 | 947.5 | 942.1 | 938.1 | 932.9 | – | – | – | –
[1], m1 = 0.0469 | 949.7 | 944.4 | 940.5 | 935.4 | – | – | – | –
[1], m1 = 0.0703 | 951.8 | 946.6 | 942.8 | 937.8 | – | – | – | –
[1], m1 = 0.0938 | 953.9 | 948.8 | 945.1 | 940.1 | – | – | – | –
[1], m1 = 0.1172 | 955.9 | 950.9 | 947.3 | 942.4 | – | – | – | –
[1], m1 = 0.1407 | 957.9 | 953 | 949.5 | 944.5 | – | – | – | –
[1], m1 = 0.1641 | 959.9 | 954.9 | 951.5 | 946.6 | – | – | – | –
[1], m1 = 0.1876 | 961.8 | 956.9 | 953.6 | 948.6 | – | – | – | –
[1], m1 = 0.211 | 963.7 | 958.8 | 955.6 | 950.6 | – | – | – | –
[1], m1 = 0.2345 | 965.4 | 960.7 | 957.5 | 952.5 | – | – | – | –
[2], m1 = 0.0234 | – | – | – | – | 1.4275 | 1.426 | 1.4238 | 1.422
[2], m1 = 0.0469 | – | – | – | – | 1.4277 | 1.4269 | 1.4249 | 1.423
[2], m1 = 0.0703 | – | – | – | – | 1.428 | 1.4271 | 1.4259 | 1.424
[2], m1 = 0.0938 | – | – | – | – | 1.4285 | 1.4274 | 1.4266 | 1.425
[2], m1 = 0.1172 | – | – | – | – | 1.4288 | 1.4275 | 1.427 | 1.4261
[2], m1 = 0.1407 | – | – | – | – | 1.4289 | 1.428 | 1.4273 | 1.4265
[2], m1 = 0.1641 | – | – | – | – | 1.4295 | 1.4285 | 1.4276 | 1.4271
[2], m1 = 0.1876 | – | – | – | – | 1.43 | 1.4289 | 1.428 | 1.4273
[2], m1 = 0.211 | – | – | – | – | 1.4305 | 1.4295 | 1.4282 | 1.4274
[2], m1 = 0.2345 | – | – | – | – | 1.431 | 1.43 | 1.4288 | 1.4275
